Measured values taken from patent US11976083B2, “Inhibitors of peptidylarginine deiminases” (Gilead Sciences, Inc., priority 2020, dated 2024).

The compounds below were run against T1, human PAD4 (Homo sapiens, UniProt Q9UM07) (assay: In vitro PAD4 BAEE biochemical assay). Conditions: BAEE substrate 3 mM, 5 nM PAD4, 2 mM calcium chloride; geometric mean of multiple experiments.
T1 construct: human PAD4 (NM_012387), A2-P663, was PCR amplified; His-SUMO (N, cleaved yes); made in house; host or cells: E. coli BL21(DE3)
T1 sequence (Q9UM07 2-663): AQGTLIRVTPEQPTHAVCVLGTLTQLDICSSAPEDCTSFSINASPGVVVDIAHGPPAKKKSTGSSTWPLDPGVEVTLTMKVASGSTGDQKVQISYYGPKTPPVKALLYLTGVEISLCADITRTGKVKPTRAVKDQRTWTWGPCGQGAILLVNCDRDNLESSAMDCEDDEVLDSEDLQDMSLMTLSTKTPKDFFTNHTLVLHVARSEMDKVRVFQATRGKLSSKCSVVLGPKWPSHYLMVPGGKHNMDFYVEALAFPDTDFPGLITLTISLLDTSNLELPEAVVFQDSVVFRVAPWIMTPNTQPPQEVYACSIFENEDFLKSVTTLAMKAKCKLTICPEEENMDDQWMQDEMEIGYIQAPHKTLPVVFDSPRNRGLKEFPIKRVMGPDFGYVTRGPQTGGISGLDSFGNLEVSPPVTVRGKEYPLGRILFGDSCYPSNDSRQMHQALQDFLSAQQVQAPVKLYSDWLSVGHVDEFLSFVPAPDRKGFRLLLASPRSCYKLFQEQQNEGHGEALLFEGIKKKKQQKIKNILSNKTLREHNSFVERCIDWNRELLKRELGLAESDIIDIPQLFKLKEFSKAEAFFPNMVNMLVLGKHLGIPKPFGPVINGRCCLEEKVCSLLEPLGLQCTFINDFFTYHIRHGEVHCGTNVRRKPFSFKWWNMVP
Outline: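 PAD4 5 nM, CaCl2 2 mM, BAEE 3 mM final; 50 mM MOPS pH 7.6, 50 mM NaCl, 0.05% Tween-20, 2 mM DTT. Cpd + enzyme 30 min 25 °C; substrate 2 h 25 °C; EDTA stop; OPA detection 1 h. IC50 4-parameter fit.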

SMILES	IC50 [nM]
C[C@H]1NC(=O)c2cccc(F)c2CCCCCn2c(-c3nc4cc(C(=O)N[C@H]5CNCC[C@@H]5F)c(F)cc4n3C)cc3ccc1nc32 [Example 352, 6-fluoro-2-[(2~{R})-9-fluoro-2-methyl-4-oxo-3,16,22-triazatetracyclo[14.5.2.0^{5,10).0^{19,23}]tricosa-1(22),5,7,9,17,19(23),20-heptaen-17-yl]-~{N}-[(3~{S),4~{S})-4-fluoro-3-piperidyl]-1-methyl-benzimidazole-5-carboxamide]	53
CCc1c(-c2cc3ccc4nc3n2CCCCCCCC(=O)N[C@@H]4C)nn2cc(C(=O)N3[C@H]4CC[C@@H]3[C@H](N)C4)ccc12 [Example 252, 17-[5-[(1˜{R},2˜{R},4˜{S})-2-amino-7-azabicyclo[2.2.1]heptane-7-carbonyl]-3-ethylpyrazolo[1,5-a]pyridin-2-yl]-11-methyl-1,10,19-triazatricyclo[10.5.2.0^{15,18}]nonadeca-12(19),13,15(18),16-tetraen-9-one]	45
COc1cc(C(=O)N[C@H]2CNCC[C@@H]2F)cc2nc(-c3cc4ccc5nc4n3CCCCCc3nnn(C)c3C(=O)N[C@@H]5C)n(C)c12 [Example 183, 2-[(2~{R})-2,6-dimethyl-4-oxo-3,6,7,8,15,21-hexazatetracyclo[13.5.2.0^{5,9}.0^{18,22}]docosa-1(21),5(9),7,16,18(22),19-hexaen-16-yl]-~{N}-[(3~{S},4~{S})-4-fluoro-3-piperidyl]-7-methoxy-1-methyl-benzimidazole-5-carboxamide]	121
C[C@H]1NC(=O)[C@]2(F)C[C@H]2CCCCCn2c(-c3nc4cc(C(=O)N[C@H]5CNCC[C@@H]5F)c(F)cc4n3C3CC3)cc3ccc1nc32 [Example 387, 1-cyclopropyl-6-fluoro-2-[(2~{R},5~{S},7~{R})-5-fluoro-2-methyl-4-oxo-3,13,19-triazatetracyclo[11.5.2.0^{5,7}.0^{16,20}]icosa-1(19),14,16(20),17-tetraen-14-yl]-~ {N}-[(3~{S},4~{S})-4-fluoro-3-piperidyl]benzimidazole-5-carboxamide]	25
COc1cc(C(=O)N2CC[C@@H](OC)[C@@H](N)C2)cc2nc(-c3cc4ccc5c(F)c4n3CC(F)(F)CCC[C@@H]3C[C@H]3C(=O)N[C@@H]5C)n(C)c12 [Example 648, (2~{R},5~{R},7~{R})-14-[5-[(3~{S},4~{R})-3-amino-4-methoxy-piperidine-1-carbonyl]-7-methoxy-1-methyl-benzimidazol-2-yl]-11,11,19-trifluoro-2-methyl-3,13-diazatetracyclo[11.5.2.0^ {5,7}.0^{16,20}] icosa-1(19),14,16(20), 17-tetraen-4-one]	41
C[C@H]1NC(=O)C(C)(C)CCCCCCn2c(-c3nc4cc(C(=O)N5C[C@H](N)[C@@H]6CC[C@H]5C6)cc(F)c4n3C3CC3)cc3ccc1cc32 [Example 462, (11~{R})-17-[5-[(1~{S},4~{R},5~{R})-4-amino-2-azabicyclo[3.2.1]octane-2-carbonyl]-1-cyclopropyl-7-fluoro-benzimidazol-2-yl]-8,8,11-trimethyl-1,10-diazatricyclo[10.5.2.0^{15,18}]nonadeca-12(19),13,15(18),16-tetraen-9-one]	31
CO[C@@H]1CCN(C(=O)c2cc(F)c3c(c2)nc(-c2cc4ccc5nc4n2CCCCCc2ccnc(C(F)(F)F)c2C(=O)N[C@@H]5C)n3C2CC2)C[C@@H]1N [Example 836, (2~{R})-17-[5-[(3~{S}, 4~{R})-3-amino-4-methoxy-piperidine-1-carbonyl]-1-cyclopropyl-7-fluoro-benzimidazol-2-yl]-2-methyl-6-(trifluoromethyl)-3,7,16,22-tetrazatetracyclo[14.5.2.0^ {5,10}.0^{19,23}] tricosa-1(22),5(10), 6,8,17,19(23),20-heptaen-4-one]	32
COc1cc(C(=O)N2C[C@H](N)C[C@@H](F)[C@@H]2C)cc2nc(-c3cc4ccc5nc4n3CC(F)(F)CCCC3C[C@H]3C(=O)N[C@@H]5C)n(C)c12 (stereo partly drawn) [Example 792, (2~{R},5~{R),7~{R})-14-[5-[(2~{S),3~{R},5~{R})-5-amino-3-fluoro-2-methyl-piperidine-1-carbonyl]-7-methoxy-1-methyl-benzimidazol-2-yl]-11,11-difluoro-2-methyl-3,13,19-triazatetracyclo [11.5.2.0^{5,7}.0^{16,20}] icosa-1(18),14,16,19-tetraen-4-one]	342

Now from value to compound:

IC50 [nM]	SMILES
215	COc1cc(C(=O)N2CCC[C@@H](N)C2)cc2nc(-c3cc4ccc5cc4n3CCCCCCNC(=O)c3ccccc3-5)n(C)c12 [Example 51, 17-[5-[(3~{R})-3-aminopiperidine-1-carbonyl]-7-methoxy-1-methyl-benzimidazol-2-yl]-9,16-diazatetracyclo[14.5.2.0^{2,7}.0^{19,23}] tricosa-1(22),2,4,6,17,19(23),20-heptaen-8-one]
61	CO[C@@H]1CCN(C(=O)c2cc(F)c3c(c2)nc(-c2cc4ccc5nc4n2CCCCCc2nc4ccccc4cc2C(=O)N(C)[C@@H]5C)n3C2CC2)C[C@@H]1N [Example 833, (2~{R})-21-[5-[(3~{S},4~ {R})-3-amino-4-methoxy-piperidine-1-carbonyl]-1-cyclopropyl-7-fluoro-benzimidazol-2-yl]-2,3-dimethyl-3,13,20,26-tetrazapentacyclo[18.5.2.0^ {5,14).0^{7,12}.0^ {23,27}]heptacosa-1(26),5(14),6,8,10,12, 21,23(27),24-nonaen-4-one]
88	COc1cc(C(=O)N2CC[C@@H](OC)[C@@H](N)C2)cc2nc(-c3cc4ccc5nc4n3CCCCCC[C@@H]3C[C@H]3C(=O)N[C@@H]5C)n(C)c12 [Example 586, (2~{R},5~{R},7~{R})-15-[5-(3~{S),4~{R})-3-[amino-4-methoxy-piperidine-1-carbonyl]-7-methoxy-1-methyl-benzimidazol-2-yl]-2-methyl-3,14,20-triazatetracyclo[12.5.2.0^ {5,7}.0^{17,21}] henicosa-1(20),15,17(21), 18-tetraen-4-one]
35	COc1cc(C(=O)N2[C@H]3CC[C@@H]2[C@H](N)C3)cc2nc(-c3cc4ccc5nc4n3CCCCCC[C@H](C)C(=O)N[C@@H]5C)n(C)c12 [Example 137, (8~{S},11~{R})-17-[5-[(1~{R},2~{R},4~{S})-2-amino-7-azabicyclo[2.2.1]heptane-7-carbonyl]-7-methoxy-1-methyl-benzimidazol-2-yl]-8,11-dimethyl-1,10,19-triazatricyclo[10.5.2.0^{15,18}]nonadeca-12(19),13,15(18),16-tetraen-9-one]
50	CO[C@@H]1CCN(C(=O)c2cc(F)c3c(c2)nc(-c2cc4ccc5nc4n2CCCCCC2C[C@H]2C(=O)N[C@@H]5C)n3C2CC2)C[C@@H]1N (stereo partly drawn) [Example 579, (2~{R},5~{R},7~{R})-14-[5-[(3~{S),4~{R})-3-amino-4-methoxy-piperidine-1-carbonyl]-1-cyclopropyl-7-fluoro-benzimidazol-2-yl]-2-methyl-3,13,19-triazatetracyclo [11.5.2.0^{5,7}.0^{16,20}] icosa-1(19),14,16(20), 17-tetraen-4-one]
31	COc1cc(C(=O)N2C[C@H](N)[C@@H]3CC[C@H]2C3)cc2nc(-c3cc4ccc5nc4n3CCCCCC[C@](C)(F)C(=O)N[C@@H]5C)n(C)c12 [Example 949, (8~{S},11~{R})-17-[5-[(1~{S},4~{R},5~{R})-4-amino-2-azabicyclo[3.2.1]octane-2-carbonyl]-7-methoxy-1-methyl-benzimidazol-2-yl]-8-fluoro-8,11-dimethyl-1,10,19-triazatricyclo [10.5.2.0^{15,18}]nonadeca-12(19),13,15(18),16-tetraen-9-one]
109	COc1cc(C(=O)N[C@H]2CNCC[C@@H]2F)cc2nc(-c3cc4ccc5nc4n3CCCCC[C@H]3C[C@]3(C)C(=O)N[C@@H]5C)n(C)c12 [Example 187, 2-[(2~{R},5~{S},7~{S})-2,5-dimethyl-4-oxo-3,13,19-triazatetracyclo[11.5.2.0^{5,7}.0^{16,20}]icosa-1(19),14,16(20),17-tetraen-14-yl]-~ {N}-[(3~{S},4~{S})-4-fluoro-3-piperidyl]-7-methoxy-1-methyl-benzimidazole-5-carboxamide]
37	COc1cc(C(=O)N2C[C@H](N)[C@@H]3CC[C@H]2C3)cc2nc(-c3cc4ccc5nc4n3CCCCCC(C)(C)C(=O)N[C@@H]5C)n(C)c12 [Example 443, (10~{R})-16-[5-[(1~{S},4~{R},5~{})-4-amino-2-azabicyclo[3.2.1]octane-2-carbonyl]-7-methoxy-1-methyl-benzimidazol-2-yl]-7,7,10-trimethyl-1,9,18-triazatricyclo[9.5.2.0^{14,17}]octadeca-11(18),12,14(17),15-tetraen-8-one]
31	C[C@H]1NC(=O)[C@@H]2C[C@H]2CCCC(F)(F)Cn2c(-c3nc4cc(C(=O)N5C[C@H](N)[C@@H]6CC[C@H]5C6)cc(F)c4n3[C@@H]3C[C@H]3C(F)F)cc3ccc1nc32 [Example 454, (2~{R},5~{R},7~{R})-14-[5-[(1~{S),4~{R},5~{R})-4-amino-2-azabicycło[3.2.1]octane-2-carbonyl]-1-[(1~{R},2~{R})-2-(difluoromethyl)cyclopropyl]-7-fluoro-benzimidazol-2-yl]-11,11-difluoro-2-methyl-3,13,19-triazatetracyclo[11.5.2.0^{5,7}.0^{16,20}] icosa-1(19),14,16(20),17-tetraen-4-one]
24	C[C@H]1NC(=O)[C@@H]2C[C@H]2CCCCCn2c(-c3nc4cc(C(=O)N[C@H]5CNCC[C@@H]5F)c(F)c(F)c4n3C3CC3)cc3ccc1nc32 (single isomer, unassigned) [Example 275, 1-cyclopropyl-6,7-difluoro-˜{N}-[(3˜{S},4˜{S})-4-fluoro-3-piperidyl]-2-[(2˜{R},5˜{R},7˜{R})-2-methyl-4-oxo-3,13,19-triazatetracyclo[11.5.2.0^{5,7}.0^{16,20}]icosa-1(19),14,16(20),17-tetraen-14-yl]benzimidazole-5-carboxamide]
